# Data published in patent publication US20250275938A1, “COMPOSITIONS AND METHODS FOR TREATMENT OF CANCER” (SCIROSBIO (FZC), priority 2022, published 2025).
# Experiments:
# [1] = test system: human pancreatic cancer (PANC1) cells; experiment: MTT cell viability assay, PANC1; type: cell-based; conditions: 24 hours
# Method: Cell lines and culture conditions: A human pancreatic cancer cell line PANC1 and human colon cancer cell line HCT116 were obtained from National Centre for Cell Science (NCCS), Pune, India. The PANC1 cells were sub-cultured in Dulbecco's Modified Eagle's Medium (DMEM) supplemented with 10% FBS at 5% C02 and 37° C. The HCT116 cells were sub-cultured in McCoy's 5A media supplemented with 10% FBS at 5% CO2 and 37° C. […] The cells were allowed to attach 70% to the surface prior to treatment. […] Suspensions were aspirated 10 times before treatment. Cells treated with vehicle control were used as a control. Cell viability assay: PANC1 and HCT116 cells ([…] cells/ml) were seeded in 96-well plates and exposed to different individual-drug treated groups with varying concentrations (0, 20, 40, 60, 80, 100, 120, 140, 160, 180 and 200 μM) for a period of 24 hours. The individual-treated groups include Group I: 5 Fluorouracil (5FU)-treated PANC1 and HCT116 cells; Group II: MET-treated PANC1 and HCT116 cells; Group III: EGCG-treated PANC1 and HCT116 cells and Group IV: 5FU+[…] PANC1 and HCT116 cells.
# [2] = LC/MS of drugs and active metabolites in plasma and brain (blood brain barrier); type: in vivo, rat; conditions: for Detected mass in LC-MS Brain / Detected mass in LC-MS Plasma: NA = not detected
# Method: T, M & E (Sigma Aldrich, St. Louis, USA) were dissolved in sterile water and administered intra peritoneally for 7 days (from day 21 to day 27; where the day of tumor induction is considered day 0) to a rat with the dose specified in Table-4 (TME: 50+80+150 mg/kg body weight). After 7 days of treatment (on day 28), blood (plasma) was collected and the rat was euthanized, immediately the brain tissue was collected and stored at −80° C. The brain tissue was then processed accordingly to measure active metabolites through LC/MS.
# To 100 μl of plasma or brain (0.5 g crushed in 0.5 mL of sterile water), 20 μl of the working internal standard solution was added. The samples were deproteinised with acetonitrile and the supernatant (100 μl) was injected into the chromatographic system. For the brain, as described above, ciprofloxacin solution (20 μl) was added to 100 μl of crushed brain. Then, repeating the plasma sample process, 20 μl of the solution was injected into the chromatographic system.
# [3] = test system: human breast cancer (MDA-MB-453) cells; experiment: MTT cell viability assay, MDA-MB-453; type: cell-based; conditions: 24 hours
# Method: Cell lines and culture conditions: A human breast cancer cell line MDA-MB-453 and human bone cancer cell line SaoS2 were obtained from National Centre for Cell Science (NCCS), Pune, India. The MDA-MB-453 cells were sub-cultured in Dulbecco's Modified Eagle's Medium (DMEM) supplemented with 10% FBS at 5% CO2 and 37° C. The SaoS2 cells were sub-cultured in McCoy's 5A media supplemented with 10% FBS at 5% CO2 and 37° C. […] The cells were allowed to attach 70% to the surface prior to treatment. […] Suspensions were aspirated 10 times before treatment. Cells treated with vehicle control were used as a control. Cell viability assay: MDA-MB-453 and SaoS2 cells (5×10^3 cells/ml) were seeded in 96-well plates and exposed to different individual-drug treated groups with varying concentrations (0, 20, 40, 60, 80, 100, 120, 140, 160, 180 and 200 μM) for a period of 24 hours.
# [4] = test system: human hepatocellular carcinoma (HepG2) cells; experiment: MTT cell viability assay, HepG2; type: cell-based; conditions: 24 hours
# Method: Cell lines and culture conditions. A human hepatocellular carcinoma (HepG2) and ovarian cancer (SKOV3) cells were obtained from National Centre for Cell Science (NCCS), Pune, India. The cells HepG2 and SKOV3 were sub-cultured in Eagle's Minimum Essential Medium (EMEM) and McCoy's 5a supplemented with 10% FBS at 5% CO2 and 37° C. […] The cells were allowed to attach 70% to the surface prior to treatment. A stock solution of all the drugs (10 mg/ml) was made in distilled H2O and diluted to the required concentrations. Suspensions were aspirated 10 times before treatment. Cells treated with vehicle control were used as a control.
# [5] = test system: U87MG human glioma cell line; experiment: MTT cell viability assay, U87MG; type: cell-based
# Method: (§1) Cell lines and culture conditions. A human glioma cell line, U87MG, a rat glioma cell line, C6, and normal HEK293T (Human Embryonic Kidney) cells were obtained from National Centre for Cell Science (NCCS), Pune, India. The cells were sub-cultured in Dulbecco's Modified Eagle's Medium (DMEM) supplemented with 10% FBS at 5% CO2 and 37° C. At 85% confluence, the cells were harvested using 0.25% trypsin and seeded in 25 cm^2 flasks, 96 well, and 6-well plates, according to the experiment being performed. The cells were allowed to attach 70% to the surface prior to treatment. A stock solution of all the drugs (10 mg/ml) was made in a vehicle and diluted to the required concentrations. Suspensions were aspirated 10 times before treatment. Cells treated with vehicle control were used as a control.
# (§2) Cell viability assay. U87MG and C6 cells (5×10^3 cells/ml) were seeded in 96-well plates and exposed to different individual-drug treated groups with varying concentrations (0, 10, 40, 80, 120, and 160 μM) for a period of 24 hours, whereas HEK293T cells (5×10^3 cells/ml) were seeded at the inhibitory concentration (IC) at 50% of drugs, either alone or in combination. The individual-treated groups include Group I: untreated control glioma cells; Group II: TMZ-treated glioma cells; Group III: MET-treated glioma cells; and Group IV: EGCG-treated glioma cells.
# (§3) After a 24 hour treatment period, the cells were allowed to react with MTT for 4 hours in dark at 37° C. At the end of the incubation period, the dark purple formazan crystals formed were solubilized with DMSO and the absorbance was measured spectrophotometrically at 595 nm (Molecular Devices Spectra-Max M5, USA). The experiments were repeated at least three times. To determine the cell viability, the percentage of viability was calculated as follows:
# (§4) % viability=[(Optical density {OD} of treated cells−OD of Blank)/(OD of control−OD of blank)]×100.
# (§5) Calculation of IC50 value. The IC50 of a drug was determined using y=m(x)+c equation (where: ‘y’ & ‘x’ are the respective coordinates of y & x-axis, ‘m’ is the slope and ‘c’ is the constant) derived from the trendlines of each scattered plots MMT assay. […] The IC50 and IC25 were also calculated for the dual combinations. The IC50 for the triple combination was calculated by keeping the IC25 of the dual-combination constant, and the third drug was used in varying concentrations (0, 10, 40, 80, 120, and 160 μM) (Table 1).
# (§6) Combination index of drugs. According to the Chou-Talalay method, The statistical Combination Index (CI) of the drugs was performed according to the Chou-Talay method (Ma et al, Stem Cell Reports, 2017 9(6):1948-1960) to determine whether various drug combinations were synergistic, additive, or antagonistic, as shown in Table 1. This was performed for Groups V-IX using the following formula:
# (§7) Combination index (CI) of Drugs 1 & 2=(IC50 of drug-1 in combination/IC50 of drug-1 individually)+(IC50 of drug-2 in combination/IC50 of drug-2 individually).
# [6] = test system: HEK293T (Human Embryonic Kidney) cells; experiment: Trypan blue exclusion cytotoxicity on normal cell line; type: cell-based; conditions: treated at IC50 values determined in U87MG and C6, 24 hours
# Method: Cytotoxicity on a normal cell line.
# Furthermore, to check for the cytotoxicity of the drugs, a trypan blue dye exclusion assay was performed on a normal cell line, HEK293T, using the IC50 values of each drug, individually and in combination, as determined in U87MG and C6 cells and shown in Table 2.
# Ki67 = experiment: Immunohistochemistry of tumor sections, Ki67; type: in vivo, rat; conditions: i.p. 7 days; tumor-control 36.73%
# VEGF = experiment: Immunohistochemistry of tumor sections, VEGF; type: in vivo, rat; conditions: i.p. 7 days; tumor-control 73.58%
# Method: Immunohistochemistry. For immunohistochemistry (IHC) analysis, 4 μm thick tissue sections were deparaffinized in xylene and hydrated by immersing in a series of graded ethanol concentration (100%, 95%, 75% and 50%). Endogenous peroxidase activity was blocked by incubating sections in 3% H2O2 solution prepared in methanol at room temperature for 10 minutes and were washed with PBS twice for 5 minutes each. Antigen retrieval was performed by immersing the slides in 300 ml of retrieval buffer (10 mM citrate buffer, pH 6.0) for one hour at 100° C. and were rinsed twice in PBS. Sections were then incubated with approximately 100 μl diluted primary antibodies of Ki67 (1:100 dilution, Elabscience, Wuhan, China) and Vascular Endothelial Growth Factor (VEGF) (1:100 dilution, Elabscience, Wuhan, China) for 30 minutes at room temperature. The slides were then washed twice with PBS and were then incubated with approximately 100 μl of diluted secondary antibody (Cat No. E-IR-R213, Elabscience, Wuhan, China) at room temperature for 30 minutes. Slides were then washed in PBS for 5 minutes, followed by incubation with approximately 100 μl diluted Horse Radish Peroxidase (HRP) conjugate for 30 minutes. […] The staining intensities were quantified using IHC Profiler, a plugin in ImageJ software, to determine the H-score (Histo score).
# C6 rat glioma cell line = experiment: MTT cell viability assay, C6; type: cell-based
# Method: as §1, §2, §3, §4, §5, §6, §7
# [7] = individually treated T, M and E, i.p. 7 days
# [8] = triple combination TME 50+80+150 mg/kg i.p. 7 days
# [9] = as used in the triple combination for CI
compound,measurement,setting,value
"O=c1[nH]cc(F)c(=O)[nH]1 [5FU, 5-Fluorouracil]","cell viability (MTT), in words",[1],reduction in cell viability in a dose-dependent fashion
"NC(=O)c1[nH]cnc1N [AIC, 5-amino-imidazole-4-carboxamide]",Detected mass in LC-MS Brain,[2]; [7],123.09
same,Detected mass in LC-MS Plasma,[2]; [7],127.02
same,Detected mass in LC-MS Brain,[2]; [8],123.05
same,Detected mass in LC-MS Plasma,[2]; [8],127.02
"COc1cccc2c1C(=O)c1c(O)c3c(c(O)c1C2=O)C[C@@](O)(C(=O)CO)C[C@@H]3O[C@H]1C[C@H](N)[C@H](O)[C@H](C)O1 [DOX, Doxorubicin]","cell viability (MTT), in words",[3],reduction in cell viability in a dose-dependent fashion
"CNC(=O)c1cc(Oc2ccc(NC(=O)Nc3ccc(Cl)c(C(F)(F)F)c3)cc2)ccn1 [SOR, Sorafenib]","cell viability (MTT), in words",[4],reduction in cell viability in a dose-dependent fashion
"Cn1nnc2c(C(N)=O)ncn2c1=O [TMZ, 3-methyl-3-oxoimidazo[5,1-d] [1,2,3,5] tetrazine-8-carboxamide]","transport across the blood brain barrier, in words",[2]; administered individually and in combination,crossed BBB in the form of their active metabolites
same,Detected mass in LC-MS Plasma,[2]; [8],198.93
same,IC50,"[5]; Homo sapiens, U-87 MG, individual drug, 24 hours, mean ± SD, no unit in table, test concentrations given in μM, read-out: Inhibitory Concentration at 50% (IC50) U87MG Cells",77 ± 1.14 µM
same,IC25 U87MG,[5]; [9],18.94 µM
same,toxicity in normal HEK293T cells,[6],higher toxicity
same,Ki67 nuclear positivity rate,Ki67,13.14%
same,cytoplasmic positivity for VEGF (H-score),VEGF,25.83%
same,IC50,"C6 rat glioma cell line; Rattus norvegicus, C6, individual drug, 24 hours, mean ± SD, no unit in table, test concentrations given in μM, read-out: Inhibitory Concentration at 50% (IC50) C6 Cells",72 ± 1.32 µM
same,IC25 C6,C6 rat glioma cell line; [9],31.76 µM
